This note sets out measurements from paper PMC10999543, “Identification of kinase modulators as host-directed therapeutics against intracellular methicillin-resistant Staphylococcus aureus” (Frontiers in Cellular and Infection Microbiology, 2024).

Where two headings read alike, the source gives them in different places.

One data set has as its system intracellular MRSA. The class given is cell-based, Staphylococcus aureus. The note with it: for z-scoreMRSA+ mean: mean of 3 replicates; for z-scoreMRSA+ rep 1 / %GFP+ rep 1: replicate 1; for z-scoreMRSA+ rep 2 / %GFP+ rep 2: replicate 2; for z-scoreMRSA+ rep 3 / %GFP+ rep 3: replicate 3. In outline: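 HeLa cells were infected with GFP-expressing MRSA (mean MOI 6.8) for 1 h, treated with 30 µg/ml gentamicin for 15 min, then incubated overnight at 37°C with kinase inhibitors and 5 µg/ml gentamicin. Flow cytometry gave % GFP-positive cells, with cell count as viability. Hits were z-score ≤ -2 (infection) and ≥ -3 (count) versus DMSO.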

The test system of the next data set is HeLa cells. Put plainly: Compound screen by flow cytometry: HeLa cell count as surrogate readout of cell viability (z-scoreHeLa). The note with it: for z-scoreHeLa mean: mean of 3 replicates; for z-scoreHeLa rep 1 / cell count rep 1: replicate 1; for z-scoreHeLa rep 2 / cell count rep 2: replicate 2; for z-scoreHeLa rep 3 / cell count rep 3: replicate 3. The class given is cell-based, human. In short, it runs like this: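 The viability surrogate was the count of fixed HeLa cells by flow cytometry, converted to z-scores against DMSO controls with values deviating two-fold excluded. Before counting, cells had been infected with MRSA for 1 h and cleared of extracellular bacteria with gentamicin. They were then exposed overnight to kinase inhibitors in triplicate.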
On the technique in general: A flow cytometer gives signals particle by particle.

[1] abbreviates: PKIS compound screen, Yes/No call.
[2] abbreviates: PKIS compound screen, Yes/No call (effect without cell death).
The mark [3] stands for this setting: PKIS compounds raw data, MRSA-infected HeLa cells.
Setting [4] is: PKIS compounds raw data, HeLa cell count.
The mark [5] stands for this setting: PKIS compound screen raw data, MRSA-infected HeLa cells.
[6] abbreviates: Yes/No: effect without cell death.
Setting [7] is: compound screen, MRSA-infected HeLa cells.
Where [8] appears, read: PKIS compound screen raw data, HeLa cell count.
Where [9] appears, read: compound screen, HeLa cell count.
Where [10] appears, read: PKIS compound screen, MRSA-infected HeLa cells.
[11] abbreviates: PKIS compound screen, Yes/No call on z-scoreMRSA+.
Where [12] appears, read: PKIS compound screen, HeLa cell count.
Setting [13] is: PKIS compound screen, Yes/No call on z-scoreHeLa.

For `COc1cc(N2CCN(C(C)C)CC2)ccc1Nc1nc(Nc2ccc(F)cc2C(N)=O)c2cc[nH]c2n1` [GSK1220512A], the effect result with intracellular MRSA (setting [1]) is listed as “No”. Further, the hit entry with intracellular MRSA (setting [2]) is on record as “No”. In addition, in the data set with intracellular MRSA (PKIS compound screen), the “z-scoreMRSA+ mean” value is listed as 1.45, the “z-scoreMRSA+ rep 1” value is 1.80, the “z-scoreMRSA+ rep 2” value turned out to be 1.41 and the “z-scoreMRSA+ rep 3” value stood at 1.13. Besides, in the data set with intracellular MRSA (setting [3]), the “%GFP+ rep 1” value amounted to 18.8%, the “%GFP+ rep 2” value is listed as 17.7% and the “%GFP+ rep 3” value was 19.7%. In the data set on HeLa cells (setting [1]), the cell death result is “No”. For the same compound, in the data set with HeLa cells (PKIS compound screen), the z-scoreHeLa mean was -0.69, the “z-scoreHeLa rep 1” value is recorded as -0.95, the “z-scoreHeLa rep 2” value is listed as -0.27 and the “z-scoreHeLa rep 3” value is recorded as -0.85. In the data set on HeLa cells (setting [4]), the “cell count rep 1” value is 3725, the “cell count rep 2” value was 3908 and the “cell count rep 3” value was determined as 5195.
For `COc1ccc(Nc2nccc(-c3ccc(NC(=O)c4cc5cc(F)ccc5[nH]4)cc3)n2)cc1` [GSK1229496A], in the data set on intracellular MRSA (setting [5]), the “%GFP+ rep 1” value came to 23.7%, the “%GFP+ rep 2” value is given as 24.4% and the “%GFP+ rep 3” value is 20.6%. Besides, the effect result in the data set with intracellular MRSA (Yes/No call from z-scoreMRSA+) is listed as “No”. Also, in the data set on intracellular MRSA (setting [6]), the hit result is listed as “No”. For the same compound, in the data set on intracellular MRSA (setting [7]), the “z-scoreMRSA+ mean” value is listed as -0.14, the “z-scoreMRSA+ rep 1” value was -0.37, the “z-scoreMRSA+ rep 2” value turned out to be 0.43 and the “z-scoreMRSA+ rep 3” value was -0.48. Also, in the data set on HeLa cells (setting [8]), the “cell count rep 1” value was determined as 4195, the “cell count rep 2” value is 3679 and the “cell count rep 3” value came to 5039. In the data set on HeLa cells (Yes/No call from z-scoreHeLa), the cell death result is reported as “No”. Moreover, in the data set on HeLa cells (setting [9]), the z-scoreHeLa mean is given as -0.24, the “z-scoreHeLa rep 1” value was -0.11, the “z-scoreHeLa rep 2” value was -0.48 and the “z-scoreHeLa rep 3” value is on record as -0.13.
For `NCCCC(NC(=O)c1cc(Br)c(-c2ccnc3[nH]ccc23)s1)c1ccccc1` (centres unmarked) [GSK1287544A], in the data set on intracellular MRSA (setting [5]), the “%GFP+ rep 1” value was 26.9%, the “%GFP+ rep 2” value is 27.6% and the “%GFP+ rep 3” value is given as 25.5%. For the same compound, the effect entry with intracellular MRSA (Yes/No call from z-scoreMRSA+) is given as “No”. Besides, the hit result with intracellular MRSA (setting [6]) is reported as “No”. In the data set on intracellular MRSA (setting [7]), the “z-scoreMRSA+ mean” value was 0.86, the “z-scoreMRSA+ rep 1” value was found to be 0.38, the “z-scoreMRSA+ rep 2” value is given as 1.21 and the “z-scoreMRSA+ rep 3” value is given as 0.99. In the data set on HeLa cells (setting [8]), the “cell count rep 1” value is listed as 6296, the “cell count rep 2” value was 6004 and the “cell count rep 3” value came to 7754. Further, the cell death result in the data set on HeLa cells (Yes/No call from z-scoreHeLa) was “No”. In addition, in the data set with HeLa cells (setting [9]), the z-scoreHeLa mean is given as 1.43, the “z-scoreHeLa rep 1” value came out at 1.40, the “z-scoreHeLa rep 2” value is 1.31 and the “z-scoreHeLa rep 3” value turned out to be 1.59.
In the case of `CC(C(=O)NC1CCN(c2ccnc(Nc3ccc(F)cc3)n2)C1)c1ccc(Cl)cc1` (centres unmarked) [GSK1379713A], in the data set with intracellular MRSA (setting [5]), the “%GFP+ rep 1” value is 27.3%, the “%GFP+ rep 2” value was 23.1% and the “%GFP+ rep 3” value turned out to be 24.4%. In the data set on intracellular MRSA (Yes/No call from z-scoreMRSA+), the effect entry is listed as “No”. Further, the hit entry in the data set on intracellular MRSA (setting [6]) is “No”. For the same compound, in the data set on intracellular MRSA (setting [7]), the “z-scoreMRSA+ mean” value is listed as 0.42, the “z-scoreMRSA+ rep 1” value is reported as 0.47, the “z-scoreMRSA+ rep 2” value stood at 0.12 and the “z-scoreMRSA+ rep 3” value came to 0.66. In the data set with HeLa cells (setting [8]), the “cell count rep 1” value is recorded as 6297, the “cell count rep 2” value was 5528 and the “cell count rep 3” value was 7616. The cell death result in the data set on HeLa cells (Yes/No call from z-scoreHeLa) is “No”. Also, in the data set on HeLa cells (setting [9]), the z-scoreHeLa mean was 1.28, the “z-scoreHeLa rep 1” value was 1.40, the “z-scoreHeLa rep 2” value came to 0.94 and the “z-scoreHeLa rep 3” value is reported as 1.50.
On to `O=C(NC1CCN(c2ccnc(Nc3ccc(F)cc3)n2)C1)c1cc2ccccc2s1` (centres unmarked) [GSK1379716A], for which, in the data set on intracellular MRSA (setting [5]), the “%GFP+ rep 1” value was determined as 18.9%, the “%GFP+ rep 2” value stood at 18.2% and the “%GFP+ rep 3” value was 21.3%. In addition, in the data set with intracellular MRSA (setting [10]), the “z-scoreMRSA+ mean” value is recorded as -0.09, the “z-scoreMRSA+ rep 1” value came out at 0.0322, the “z-scoreMRSA+ rep 2” value was -0.33 and the “z-scoreMRSA+ rep 3” value is given as 0.0175. The effect entry in the data set on intracellular MRSA (setting [1]) was “No”. Moreover, the hit result in the data set with intracellular MRSA (setting [2]) is on record as “No”. In addition, the effect entry with intracellular MRSA (setting [11]) is “No”. Besides, in the data set with intracellular MRSA (PKIS compound screen), the “z-scoreMRSA+ mean” value is given as 0.16, the “z-scoreMRSA+ rep 1” value came to 0.26, the “z-scoreMRSA+ rep 2” value is 0.28 and the “z-scoreMRSA+ rep 3” value was -0.07. Besides, in the data set on intracellular MRSA (setting [3]), the “%GFP+ rep 1” value is given as 28.4%, the “%GFP+ rep 2” value is 27.5% and the “%GFP+ rep 3” value stood at 26.9%. In the data set with HeLa cells (setting [8]), the “cell count rep 1” value worked out at 35239, the “cell count rep 2” value stood at 17173 and the “cell count rep 3” value is 16326. In addition, in the data set with HeLa cells (setting [12]), the z-scoreHeLa mean is listed as -0.35, the “z-scoreHeLa rep 1” value worked out at 0.85, the “z-scoreHeLa rep 2” value is on record as -1.39 and the “z-scoreHeLa rep 3” value is -0.51. For the same compound, the cell death result in the data set with HeLa cells (setting [1]) was “No”. Further, in the data set with HeLa cells (setting [13]), the cell death entry is reported as “No”. In addition, in the data set on HeLa cells (PKIS compound screen), the z-scoreHeLa mean is on record as -0.43, the “z-scoreHeLa rep 1” value was -0.58, the “z-scoreHeLa rep 2” value is recorded as -1.00 and the “z-scoreHeLa rep 3” value worked out at 0.28. Moreover, in the data set with HeLa cells (setting [4]), the “cell count rep 1” value was 5074, the “cell count rep 2” value is 4507 and the “cell count rep 3” value is 6035.
For `O=C(Nc1ccccc1F)NC1CCN(c2ccnc(Nc3ccc(F)cc3)n2)C1` (centres unmarked) [GSK1379722A], in the data set on intracellular MRSA (setting [5]), the “%GFP+ rep 1” value is 20.2%, the “%GFP+ rep 2” value is on record as 23.8% and the “%GFP+ rep 3” value is on record as 25.6%. In the data set on intracellular MRSA (setting [10]), the “z-scoreMRSA+ mean” value is 1.37, the “z-scoreMRSA+ rep 1” value stood at 0.74, the “z-scoreMRSA+ rep 2” value is 1.59 and the “z-scoreMRSA+ rep 3” value stood at 1.77. Also, in the data set with intracellular MRSA (setting [1]), the effect result was “No”. The hit entry with intracellular MRSA (setting [2]) is “No”. In addition, the effect result with intracellular MRSA (setting [11]) is on record as “No”. For the same compound, in the data set with intracellular MRSA (PKIS compound screen), the “z-scoreMRSA+ mean” value came to 1.11, the “z-scoreMRSA+ rep 1” value was 1.04, the “z-scoreMRSA+ rep 2” value amounted to 1.28 and the “z-scoreMRSA+ rep 3” value came out at 1.01. Further, in the data set with intracellular MRSA (setting [3]), the “%GFP+ rep 1” value came to 32.4%, the “%GFP+ rep 2” value is reported as 32.7% and the “%GFP+ rep 3” value amounted to 32.7%. Also, in the data set on HeLa cells (setting [8]), the “cell count rep 1” value worked out at 32994, the “cell count rep 2” value was found to be 39130 and the “cell count rep 3” value was 43503. In the data set on HeLa cells (setting [12]), the z-scoreHeLa mean was 1.08, the “z-scoreHeLa rep 1” value worked out at 1.95, the “z-scoreHeLa rep 2” value is recorded as 0.81 and the “z-scoreHeLa rep 3” value was 0.47. The cell death result in the data set on HeLa cells (setting [1]) is “No”. The cell death result in the data set with HeLa cells (setting [13]) is on record as “No”. In the data set with HeLa cells (PKIS compound screen), the z-scoreHeLa mean was determined as 0.96, the “z-scoreHeLa rep 1” value was found to be 1.17, the “z-scoreHeLa rep 2” value amounted to 0.61 and the “z-scoreHeLa rep 3” value is listed as 1.09. Moreover, in the data set with HeLa cells (setting [4]), the “cell count rep 1” value is reported as 7997, the “cell count rep 2” value was found to be 6922 and the “cell count rep 3” value is reported as 7324.
